Laboratory results from article PMC12114812 (Pharmaceutics, 2025).
≈ marks a conversion by molar mass, not a printed value. Like-named read-outs stand apart in the source and are kept apart here.

Tests used:
physchem = format: physicochemical; conditions: I = 0.15 M, 25 °C, standard deviation in parenthesis
Method: The pKa and logPo/w determinations were performed using the SiriusT3 titrator (Pion Inc.). The titrations were carried out from pH 12.0 to 2.0 due to the acidic nature of the drugs, at an ionic strength of 0.15 M (KCl), under an argon atmosphere and controlled temperature (25.0 ± 0.1 °C).
Octanol–water partition values, logPo/w, were obtained by potentiometric titrations in the presence of octanol at concentrations between 1.4 mM and 0.4 mM.

[1] = Shake-flask solubility with and without excipient (maleic/maleate buffers, HPLC quantification); format: physicochemical; conditions: 25 °C
Method: Prior to performing the solubility measurements, maleic/maleate buffers were prepared as follows: a stock solution containing 55 mM maleic acid, 126 mM sodium chloride, and 82 mM NaOH (conditions that mimic the fed state of the intestinal fluid) was made following the guidelines of Biorelevant. Final buffers at pH 2, 5.8, and 6.5 were prepared by the addition of HCl or NaOH to three different aliquots of the stock solution. […] The weighed amount must be enough to obtain saturated solutions, which depends on the sample and pH of the buffer used. The samples were shaken for 24 h at 25 ± 0.5 °C, with a pH control of the solutions after 4 h of shaking. […] After shaking for 24 h, the samples were allowed to equilibrate for an additional 24 h. Subsequently, the final pH was measured, and phase separation was carried out via centrifugation. […] The quantification of the supernatant was performed by liquid chromatography under isocratic conditions using methanol/10 mM phosphate buffer at pH 7.5 as the mobile phase. […] The flow rate was set at 1 mL/min, with an injection volume of 10 μL. […] If necessary, an appropriate dilution in water of the saturated supernatant was carried out to ensure its fit in the range of calibration. The effect of a given excipient on the solubility of a drug depends on both the nature of the compound and the nature of the excipient used. To evaluate if the enhancement in solubility is significant with respect to the solubility in water when the excipients are added, the criterion of twice the standard deviation (sd) was applied. […] This value was chosen because it corresponds to an average standard deviation obtained in our laboratory for shake-flask solubility determinations and it also agrees with typical sd reported in the literature.

[2] = CheqSol potentiometric intrinsic solubility and supersaturation; format: physicochemical; conditions: for pH range in which the drug precipitated from solution: CheqSol titration from pH 12.0 to low pH, with and without excipients; for time of supersaturation: with hydrophilic excipients; for ts, time of supersaturation: drug:excipient 1:1; for ts, time of supersaturation / solubility: 0.17 M KCl; for Rs, supersaturation ratio: Rs = Cmax/S0, S0 of the API in a medium without excipients; for solubility: aqueous titration solution, without excipient
Excerpt: For the determination of the intrinsic solubility using the potentiometric method, two events must happen: First, the compound must be fully dissolved at the beginning of the titration. Second, the precipitation of the compound from the solution should occur close to the equivalent point of the titration curve. The amount of compound used in a CheqSol determination must be enough to achieve both events. […] All titrations started at pH 12.0, where the compounds were ionized and titrated to a low pH to force precipitation. […] At this point, the sample existed in a supersaturated or subsaturated state (i.e., chase equilibrium). The change between the subsaturated and supersaturated states was repeated several times to determine the intrinsic solubility by calculating the pH by interpolation between the two saturated states. The intrinsic solubility was calculated using the principles of mass and charge balance at the pH at which the equilibrium of the system was reached.
The CheqSol method not only provides the thermodynamic solubility of the neutral form (S0) of an ionizable compound but also the extent and time that a solution remains supersaturated before reaching S0. Both parameters are used to evaluate the supersaturation of a compound [10]. In this method, the experiment starts in conditions where the drug is completely ionized, and so, fully dissolved. Therefore, the concentration of the neutral species in solution is “zero”. The titration begins by titrating towards the pKa of the drug, to force precipitation as the neutral species starts to form. During this process, the concentration of the neutral species in solution increases to a maximum (Cmax) before the drug precipitates. When precipitation starts, it decreases dramatically to a much lower concentration to reach the intrinsic solubility. It must be noted that, before the drug precipitates, the solution is supersaturated. […] The supersaturation parameters can be obtained from the plot that monitors the concentration of neutral species in solution against time. […] The extent of the supersaturation corresponds to the maximum concentration of the neutral species in solution (Cmax) before the drug precipitates, and the duration of the supersaturation (ts) is the amount of time that the drug stays supersaturated until it reaches equilibrium solubility. In addition, the supersaturation ratio (Rs) can be calculated by dividing Cmax by the intrinsic solubility (S0).

[3] = Ionization degree at the studied pH according to pKa; format: physicochemical
Method: Therefore, this pH value was also included in the study. […] When the solubility of the free drugs (without excipients) is evaluated, it can be observed that the intrinsic solubility is in agreement with their hydrophobicity (Table 1). […] Benzthiazide has an intermediate solubility. Moreover, as expected, the solubility of the compounds increases with the ionization degree. […] Here, a slight increase is observed.

[4] = set-up: method as in PMID 29481859; conditions: I = 0.15 M, 25 °C; cited from earlier work
[5] = pKa determination, spectrometric UV-metric titration (SiriusT3); format: physicochemical; conditions: aqueous 0.15 M KCl solution; I = 0.15 M, 25 °C; standard deviation in parenthesis; read-out: pKa (second value)
Method: The pKa and logPo/w determinations were performed using the SiriusT3 titrator (Pion Inc.). […] For the analysis, 5 μL of a 10 mM DMSO sample stock solution, and 25 μL of a 15 mM potassium phosphate buffer, were added to 1.5 mL of a 0.15 M KCl solution. The UV-metric titration method used the UV absorbance changes in the aromatic groups close to the ionizable groups of the substance as a function of pH [30]. […] Results are the mean value from four triple titrations.

[6] = pH 2, Captisol, 1:1 excipient:API weight ratio
[7] = pH 2, Cavasol, 1:1 excipient:API weight ratio
[8] = pH 2, Klucel, 1:1 excipient:API weight ratio
[9] = pH 2, Kollidon, 1:1 excipient:API weight ratio
[10] = pH 2, S630, 1:1 excipient:API weight ratio
[11] = pH 5.8, Captisol, 1:1 excipient:API weight ratio
[12] = pH 5.8, Cavasol, 1:1 excipient:API weight ratio
[13] = pH 5.8, Klucel, 1:1 excipient:API weight ratio
[14] = pH 5.8, Kollidon, 1:1 excipient:API weight ratio
[15] = pH 5.8, S630, 1:1 excipient:API weight ratio
[16] = pH 6.5, Captisol, 1:1 excipient:API weight ratio
[17] = pH 6.5, Cavasol, 1:1 excipient:API weight ratio
[18] = pH 6.5, Klucel, 1:1 excipient:API weight ratio
[19] = pH 6.5, Kollidon, 1:1 excipient:API weight ratio
[20] = pH 6.5, S630, 1:1 excipient:API weight ratio
[21] = CheqSol, 25 °C, standard deviation in parenthesis
[22] = standard deviation in parenthesis
[23] = thermodynamic from solid, CheqSol, 25 °C, standard deviation in parenthesis, read-out: log S0 (intrinsic solubility) (converted)

| logP (physchem; octanol/water) | SEXC/SAPI [1, 6] | SEXC/SAPI [1, 7] | SEXC/SAPI [1, 8] | SEXC/SAPI [1, 9] | SEXC/SAPI [1, 10] | SEXC/SAPI [1, 11] | SEXC/SAPI [1, 12] | SEXC/SAPI [1, 13] | SEXC/SAPI [1, 14] | SEXC/SAPI [1, 15] | SEXC/SAPI [1, 16] | SEXC/SAPI [1, 17] | SEXC/SAPI [1, 18] | SEXC/SAPI [1, 19] | pH range in which the drug precipitated from solution [2] | time of supersaturation ([2]; CheqSol) | ts, time of supersaturation [2, 21] | solubility [2, 23] | ionization degree ([3]; pH 6.5, anionic form) | Compound | further results |
| --- | --- | --- | --- | --- | --- | --- | --- | --- | --- | --- | --- | --- | --- | --- | --- | --- | --- | --- | --- | --- | --- |
| 1.89 | 1.14 | 0.97 | 1.20 | 1.29 | 1.61 | 1.09 | 0.83 | 1.12 | 1.21 | 1.49 | 1.29 | 0.98 | 1.15 | 1.24 | 6.6–8.7 pH | ~ 20 min | 6 (1) min | 11.2 µM (≈ 4.85 µg/mL) | around 40% | NS(=O)(=O)c1cc2c(cc1Cl)N=C(CSCc1ccccc1)NS2(=O)=O [Benzthiazide] | SEXC/SAPI [1, 20]: 1.28; Rs, supersaturation ratio [2, 22]: 4 (1); Rs, fold higher ([2]; in the presence of klucel and plasdone S630): 40 fold; Rs, fold higher ([2]; in the presence of kollidon): 100 fold; pKa (first value) [4]: 6.64; pKa (second value) [4]: 9.22 |
| 2.99 | 1.48 | 1.45 | 1.50 | 1.47 | 1.81 | 1.44 | 1.56 | 1.93 | 1.88 | 1.96 | 1.52 | 1.61 | 1.84 | 1.93 | 3.7–6.7 pH | ~ 20 min | 11 (3) min | 1.91 µM (≈ 0.639 µg/mL) | ~100% | Cc1cc(NC(=O)C2=C(O)c3ccccc3S(=O)(=O)N2C)no1 [Isoxicam] | SEXC/SAPI [1, 20]: 1.73; time the initial metastable form is stabilized ([2]; CheqSol, in the presence of klucel): around 16 min; ts, time of supersaturation ([2]; CheqSol, 25 °C, standard deviation in parenthesis, listed as isoxicam): 11 min; Rs, supersaturation ratio [2, 22]: 48 (4); Rs, supersaturation ratio ([2]; standard deviation in parenthesis, listed as isoxicam): 48; solubility ([2]; CheqSol, Figure 2A, read-out: Intrinsic solubility): 1.88 µM (≈ 0.63 µg/mL); ionization degree ([3]; pH 5.8, anionic form): fully ionized; ionization degree ([3]; pH 5.8, anionic form, listed as isoxicam): ~100% |
| – | – | – | – | – | – | – | – | – | – | – | – | – | – | – | 5.7–6.7 pH | ~ 10 min | 7 (1) min | 21.4 µM (≈ 7.08 µg/mL) | 96% | CN1C(C(=O)Nc2ccccn2)=C(O)c2ccccc2S1(=O)=O [Piroxicam] | pKa [5]: 5.34; logP (physchem): 1.71; ionization degree ([3]; pH 2, cationic form, positively charged): around 40%; ionization degree ([3]; pH 5.8, anionic form): 75% |
